≈ marks a conversion by molar mass, not a printed value.
Tests used:
Assay type in all cases: cell-based, Staphylococcus aureus
[1] = system: Methicillin-resistant S. aureus strains; S. aureus (K1902); test: MIC and SIC in 96 well microplates (plasmid curing study)
Protocol: Plasmid curing activity of HN18 and HN34 was evaluated. Methicillin-resistant S. aureus strains were sub-cultured on blood agar plates to obtain isolated colonies, incubated at 35° C. in a CO2 incubator. The fresh overnight bacterial inoculum was prepared by re-suspending a few isolated colonies in a tube containing 5 ml of saline. […] The sub-inhibitory concentration (SIC) is defined as the concentration before MIC (in a serial dilution method where antibiotic concentration decreases by half from each tube to the next one).
(§1) Plasmid curing activity of HN18 and HN34 was also evaluated in S. aureus (K1902) which is known to harbor a 5 kb plasmid with a chloramphenicol resistance gene. Along with the KSA reference strain, the plasmid curing activity was repeated for SA1 and SA2 strains which are MRSA (Table 4).

[2] = system: methicillin-resistant S. aureus clinical isolates (MRSA); S. aureus (K1902); test: Plasmid curing at sub-inhibitory concentration; details: for Plasmid band in agarose gel of cured derivatives: S. aureus K1902, FIG. 3; for Susceptibility of isolates after exposure to SIC: SA1 and SA2 to oxacillin, KSA to chloramphenicol
Protocol: Plasmid curing was performed per Trevors (Trevors, 1986 Plasmid curing in bacteria. FEMS Microbiology, 32: 149-157). In brief, the clinical isolate was grown in the presence of HN18 and HN34 at the specified concentration for 18 h at 35° C. and then plated on Muller Hinton agar (MHA) plates to obtain isolated colonies. The isolated colonies were then replica plated onto MHA and MHA plates containing antibiotics. […] The percentage curing efficiency was expressed as the number of colonies with cured phenotype per 100 colonies tested. For plasmid extraction, 5 ml of an overnight culture of S. aureus strain was centrifuged and cells were subjected to 1 ml lysostaphin (20 μg/ml) for 1 hour at 35° C. prior to DNA extraction. Extraction of DNA was carried using QIAprep Spin Miniprep Kit (Qiagen) per manufacturer's instruction. DNA profile analysis was carried out by electrophoresis on 1.5% agarose gel.
The methicillin-resistant S. aureus clinical isolates (MRSA) growing in the presence of sub-inhibitory concentrations of HN18 and HN34 were taken for the evaluation for the loss of plasmids as described above. A culture control without a curing agent was also maintained in the curing experiment to estimate the rate of spontaneous loss of plasmids under these conditions. HN18 and HN34 eliminated the plasmid mediated antibiotic resistance markers with varying curing efficiencies (Table 3). HN18 cured plasmids from SA1, SA2, SA7 and SA8 at frequency in the range of 13-100%. HN34 also cured plasmids from SA1, SA2, SA7 and SA8 strains with 30%-100% curing efficiency.
as §1

[3] = system: S. aureus clinical isolates; test: Synergistic effect with oxacillin (oxacillin MIC alone and in presence of SIC); details: for Synergistic activity in combination with oxacillin: S. aureus clinical isolates, compound at SIC
Protocol: The synergistic effect (interaction) of HN18 and HN34 with different antibiotics against S. aureus clinical isolates was studied. The oxacillin MIC values of 8 clinical isolates of Staphylococcus aureus were determined. The oxacillin MIC of the same isolates were also determined after they were exposed to SIC of HN18, HN34 (Table 5). […] Column 2 and 3 show the oxacillin MIC value of the same isolates in presence of SIC of HN18 and HN34 respectively.

[4] = Table 4, KSA (S. aureus K1902), experiment I
[5] = Table 4, KSA (S. aureus K1902), experiment II
[6] = Table 4, isolate SA1, experiment I
[7] = Table 4, isolate SA1, experiment II
[8] = Table 4, isolate SA2, experiment I
[9] = Table 4, isolate SA2, experiment II
[10] = Table 3, isolate SA1, at SIC, lack of growth in presence of M, Ox (4 μg/ml)
[11] = Table 3, isolate SA2, at SIC, lack of growth in presence of M, Ox (4 μg/ml)
[12] = Table 3, isolate SA3, at SIC, lack of growth in presence of M, Ox (4 μg/ml)
[13] = Table 3, isolate SA4, at SIC, lack of growth in presence of M, Ox (4 μg/ml)
[14] = Table 3, isolate SA5, at SIC, lack of growth in presence of M, Ox (4 μg/ml)
[15] = Table 3, isolate SA6, at SIC, lack of growth in presence of M, Ox (4 μg/ml)
[16] = Table 3, isolate SA7, at SIC, lack of growth in presence of M, Ox (4 μg/ml)
[17] = Table 3, isolate SA8, at SIC, lack of growth in presence of M, Ox (4 μg/ml)
[18] = Table 4, KSA (S. aureus K1902), experiment I, lack of growth in presence of Cm (10 μg/ml)
[19] = Table 4, KSA (S. aureus K1902), experiment II, lack of growth in presence of Cm (10 μg/ml)
[20] = Table 4, isolate SA1, experiment I, lack of growth in presence of M, Ox (4 μg/ml)
[21] = Table 4, isolate SA2, experiment I, lack of growth in presence of M, Ox (4 μg/ml)

## Fc1ccc(C(C2=CNC3C=CC=CC23)C2=C3C=CC=CC3NC2)cc1F (stereo not drawn) [HN18, 3-((3,4-difluorophenyl)(2,7a-dihydro-1H-indol-3-yl)methyl)-3a,7a-dihydro-1H-indole]
[1]; Table 3, isolate SA1 (MRSA)
  SIC: 0.5 µg/mL
[1]; Table 3, isolate SA2 (MRSA)
  SIC: 1.0 µg/mL
[1]; Table 3, isolate SA3 (MRSA)
  SIC: 1.0 µg/mL
[1]; Table 3, isolate SA4 (MRSA)
  SIC: 0.5 µg/mL
[1]; Table 3, isolate SA5 (MRSA)
  SIC: 1.0 µg/mL
[1]; Table 3, isolate SA6 (MRSA)
  SIC: 0.5 µg/mL
[1]; Table 3, isolate SA7 (MRSA)
  SIC: 0.5 µg/mL
[1]; Table 3, isolate SA8 (MRSA)
  SIC: 1.0 µg/mL
[1]; [4]
  MIC: 2 µg/mL (≈ 5.52 µM)
  SIC: 1 µg/mL
[1]; [5]
  MIC: 2 µg/mL (≈ 5.52 µM)
  SIC: 1 µg/mL
[1]; [6]
  MIC: 2 µg/mL (≈ 5.52 µM)
  SIC: 1 µg/mL
[1]; [7]
  MIC: 2 µg/mL (≈ 5.52 µM)
  SIC: 1 µg/mL
[1]; [8]
  SIC: 1 µg/mL
[1]; [9]
  MIC: 2 µg/mL (≈ 5.52 µM)
  SIC: 1 µg/mL
[2]
  Plasmid band in agarose gel of cured derivatives: absent
  Susceptibility of isolates after exposure to SIC: became susceptible
[2]; [10]
  Curing efficiency I: 0%
  Curing efficiency II: 100%
[2]; [11]
  Curing efficiency I: 100%
  Curing efficiency II: 50%
[2]; [12]
  Curing efficiency I: 0%
  Curing efficiency II: 0%
[2]; [13]
  Curing efficiency I: 100%
  Curing efficiency II: 0%
[2]; [14]
  Curing efficiency I: 0%
  Curing efficiency II: 0%
[2]; [15]
  Curing efficiency I: 0%
  Curing efficiency II: 0%
[2]; [16]
  Curing efficiency I: 23%
  Curing efficiency II: 90%
[2]; [17]
  Curing efficiency I: 13%
  Curing efficiency II: 70%
[2]; [18]
  Curing efficiency (%): 36.6%
[2]; [19]
  Curing efficiency (%): 46.6%
[2]; [20]
  Curing efficiency (%): 63.3%
[2]; [21]
  Curing efficiency (%): 100%
[2]; range over SA1, SA2, SA7 and SA8
  Plasmid curing frequency / curing efficiency: 13-100%
[3]
  Synergistic activity in combination with oxacillin: decrease in the oxacillin MIC
[3]; isolate SA3, experiment I
  Oxacillin MIC in presence of SIC of the compound (1 μg/ml): 0.5 µg/mL
[3]; isolate SA3, experiment II
  Oxacillin MIC in presence of SIC of the compound (1 μg/ml): 0.5 µg/mL
[3]; isolate SA4, experiment I
  Oxacillin MIC in presence of SIC of the compound (1 μg/ml): 0.5 µg/mL
[3]; isolate SA4, experiment II
  Oxacillin MIC in presence of SIC of the compound (1 μg/ml): 1 µg/mL
[3]; isolate SA5, experiment I
  Oxacillin MIC in presence of SIC of the compound (1 μg/ml): 0.03 µg/mL
[3]; isolate SA5, experiment II
  Oxacillin MIC in presence of SIC of the compound (1 μg/ml): 0.03 µg/mL
[3]; isolate SA9, experiment I
  Oxacillin MIC in presence of SIC of the compound (1 μg/ml): 2 µg/mL
[3]; isolate SA9, experiment II
  Oxacillin MIC in presence of SIC of the compound (1 μg/ml): 4 µg/mL
[3]; isolate SA10, experiment I
  Oxacillin MIC in presence of SIC of the compound (1 μg/ml): <0.03 µg/mL
[3]; isolate SA10, experiment II
  Oxacillin MIC in presence of SIC of the compound (1 μg/ml): <0.03 µg/mL
[3]; isolate SA11, experiment I
  Oxacillin MIC in presence of SIC of the compound (1 μg/ml): <0.03 µg/mL
[3]; isolate SA11, experiment II
  Oxacillin MIC in presence of SIC of the compound (1 μg/ml): <0.03 µg/mL
[3]; isolate SA15, experiment I
  Oxacillin MIC in presence of SIC of the compound (1 μg/ml): <0.03 µg/mL
[3]; isolate SA15, experiment II
  Oxacillin MIC in presence of SIC of the compound (1 μg/ml): <0.03 µg/mL
[3]; isolate SA18, experiment I
  Oxacillin MIC in presence of SIC of the compound (1 μg/ml): <0.03 µg/mL
[3]; isolate SA18, experiment II
  Oxacillin MIC in presence of SIC of the compound (1 μg/ml): <0.03 µg/mL

## Cc1[nH]c2ccccc2c1C(c1ccc(F)c(F)c1)c1c(C)[nH]c2ccccc12 [HN34]
[1]; Table 3, isolate SA1 (MRSA)
  SIC: 1 µg/mL
[1]; Table 3, isolate SA2 (MRSA)
  SIC: 1 µg/mL
[1]; Table 3, isolate SA3 (MRSA)
  SIC: 1 µg/mL
[1]; Table 3, isolate SA4 (MRSA)
  SIC: 1 µg/mL
[1]; Table 3, isolate SA5 (MRSA)
  SIC: 1 µg/mL
[1]; Table 3, isolate SA6 (MRSA)
  SIC: 0.5 µg/mL
[1]; Table 3, isolate SA7 (MRSA)
  SIC: 0.5 µg/mL
[1]; Table 3, isolate SA8 (MRSA)
  SIC: 1 µg/mL
[1]; [4]
  MIC: 2 µg/mL (≈ 5.18 µM)
  SIC: 1 µg/mL
[1]; [5]
  MIC: 2 µg/mL (≈ 5.18 µM)
  SIC: 1 µg/mL
[1]; [6]
  SIC: 1 µg/mL
[1]; [7]
  MIC: 2 µg/mL (≈ 5.18 µM)
  SIC: 1 µg/mL
[1]; [8]
  MIC: 2 µg/mL (≈ 5.18 µM)
  SIC: 1 µg/mL
[1]; [9]
  MIC: 2 µg/mL (≈ 5.18 µM)
  SIC: 1 µg/mL
[2]
  Plasmid band in agarose gel of cured derivatives: absent
  Susceptibility of isolates after exposure to SIC: became susceptible
[2]; [10]
  Curing efficiency I: 100%
  Curing efficiency II: 100%
[2]; [11]
  Curing efficiency I: 100%
  Curing efficiency II: 70%
[2]; [12]
  Curing efficiency I: 0%
  Curing efficiency II: 0%
[2]; [13]
  Curing efficiency I: 100%
  Curing efficiency II: 0%
[2]; [14]
  Curing efficiency I: 0%
  Curing efficiency II: 0%
[2]; [15]
  Curing efficiency I: 0%
  Curing efficiency II: 0%
[2]; [16]
  Curing efficiency I: 50%
  Curing efficiency II: 30%
[2]; [17]
  Curing efficiency I: 40%
  Curing efficiency II: 63.33%
[2]; [18]
  Curing efficiency (%): 33.3%
[2]; [19]
  Curing efficiency (%): 50%
[2]; [20]
  Curing efficiency (%): 100%
[2]; [21]
  Curing efficiency (%): 96.6%
[3]
  Synergistic activity in combination with oxacillin: did not show synergistic activity
[3]; isolate SA3, experiment I
  Oxacillin MIC in presence of SIC of the compound (1 μg/ml): >16 µg/mL
[3]; isolate SA3, experiment II
  Oxacillin MIC in presence of SIC of the compound (1 μg/ml): >16 µg/mL
[3]; isolate SA4, experiment I
  Oxacillin MIC in presence of SIC of the compound (1 μg/ml): >16 µg/mL
[3]; isolate SA4, experiment II
  Oxacillin MIC in presence of SIC of the compound (1 μg/ml): >16 µg/mL
[3]; isolate SA5, experiment I
  Oxacillin MIC in presence of SIC of the compound (1 μg/ml): 16 µg/mL
[3]; isolate SA5, experiment II
  Oxacillin MIC in presence of SIC of the compound (1 μg/ml): >16 µg/mL
[3]; isolate SA9, experiment I
  Oxacillin MIC in presence of SIC of the compound (1 μg/ml): >16 µg/mL
[3]; isolate SA9, experiment II
  Oxacillin MIC in presence of SIC of the compound (1 μg/ml): >16 µg/mL
[3]; isolate SA10, experiment I
  Oxacillin MIC in presence of SIC of the compound (1 μg/ml): 16 µg/mL
[3]; isolate SA10, experiment II
  Oxacillin MIC in presence of SIC of the compound (1 μg/ml): 16 µg/mL
[3]; isolate SA11, experiment I
  Oxacillin MIC in presence of SIC of the compound (1 μg/ml): 16 µg/mL
[3]; isolate SA11, experiment II
  Oxacillin MIC in presence of SIC of the compound (1 μg/ml): 8 µg/mL
[3]; isolate SA15, experiment I
  Oxacillin MIC in presence of SIC of the compound (1 μg/ml): 16 µg/mL
[3]; isolate SA15, experiment II
  Oxacillin MIC in presence of SIC of the compound (1 μg/ml): >16 µg/mL
[3]; isolate SA18, experiment I
  Oxacillin MIC in presence of SIC of the compound (1 μg/ml): >16 µg/mL
[3]; isolate SA18, experiment II
  Oxacillin MIC in presence of SIC of the compound (1 μg/ml): >16 µg/mL
